Series [1] relates to propranolol metabolism in human keratinocytes. To be noted: tritiated propranolol 1.5×10^-7 M, several days, metabolites by TLC, vs control incubation without tranylcypromine.
Procedure: At the end of several days, the metabolites resulting from propranolol ,metabolism were identified and quantitated by thin layer chromatography.
Human keratinocytes were incubated in tritiated propranolol (12.5 Ci/mmole, final concentration 1.5×10^-7 M) and a range of concentration of each phenyl alcohol. Quadruplicates were used at each concentration. At six days, the metabolites resulting from propranolol deamination were extracted (ether, pH of 3) and the radioactivity of the extract was measured by scintillation counting. The concentration of each phenyl alcohol studied, which inhibits 50 percent of propranolol metabolism (MI50) was estimated by means of the Litchfield and Wilcoxon method.
The nature of series [2]: Patch test (elicitation) in a human subject sensitized to propranolol. The protocol: A human subject suspected of being sensitized to propranolol was patch tested for 16 hours with 0.5% propranolol in a 2% hydroxyethyl cellulose (HEC) gel buffered to a pH of 8.5 with 0.05M TrisHC1.
The same subject was patch tested several days later with the following compositions in 2% HEC gel buffered to a pH of 8.5 with 0.05M TrisHC1: 0.5% propranolol; 0.5% tranylcypromine; 10% 2-phenyl-1-ethanol; 0.5% propranolol with 0.5% tranylcypromine; and 0.5% propranolol with 10% 2-phenyl-1-ethanol. Each composition was placed simultaneously at different sites on the subject's volar forearm.

In series [3] the test system is monoamine oxidase-dependent tetracaine metabolism. Put plainly: In vitro metabolism of tetracaine (methods of the propranolol studies).
The nature of series [4]: Induction of contact sensitization by patches in groups of 100 human subjects. The format is in vivo. The following applies: tetracaine/2-phenyl-1-ethanol patches vs tetracaine-only patches, 100 subjects each. Here is the method: The components were blended in an internal mixing bowl at 100° C. and after approximately one hour, the mixture was extruded between two release substrates. One substrate was peeled away and a backing member was applied in its place.
Similar patches were manufactured without the presence of 2-phenyl-1-ethanol.
Two groups of 100 human subjects each were then tested. They were each tested by application of a system, for a three hour duration, once every 8 weeks.
100 subjects were given the patches containing only tetracaine. […] The other 100 subjects were given the patches containing both tetracaine and 2-phenyl-1-ethanol.

Series [5] in a line: Patch test (elicitation) in human subjects sensitized to tetracaine, erythema by Minolta Chromameter. The format is in vivo. The following applies: 21 hours after removal. The protocol:
Testing occurred over a period of several weeks where a positive control composition was placed on the skin along with one of the tetracaine/phenyl alcohol compositions and the intensity of the skin reaction obtained, was observed. This was repeated on different areas of the arm until all of the compositions were tested. Each formulation remained on the skin for a period of three hours and the reactions were observed during the 16-24 hour period after removal of the formulation. Erythema or redness of the reaction site was quantitated with a Minolta Chromameter. In all instances, the intensity of the reaction caused by the tetracaine/phenyl alcohol composition, was less than that caused by tetracaine alone (positive control). Thus it was established that the presence of phenyl alcohols reduced the elicitation reaction as compared to the 2% tetracaine gel.
The best results were obtained using 2-phenyl-1-ethanol and 3-phenyl-1-propanol. On a scale of 0-100, with 0 being 0% inhibition (2% tetracaine gel/positive control) and 100 being 100% inhibition (placebo gel/negative control), the following data was obtained 21 hours after removal of the formulations: […]

Series [6] relates to monoamine oxidase activity. The format is cell-based. The source says: Therefore, the metabolism of chlorpheniramine can also be inhibited in the skin or mucosa, by the addition of metabolic modulators such as the phenyl alcohols disclosed with reference to propranolol.
Setting [7] is: 0.5% alone in 2% HEC gel pH 8.5, volar forearm, one day later, propranolol-sensitized subject.
Setting [8] is: 2.5 weight % inhibitor with 2% tetracaine gel.
The mark [9] stands for this setting: 5 weight % inhibitor with 2% tetracaine gel.
The mark [10] stands for this setting: 10 weight % inhibitor with 2% tetracaine gel.

The structures appear in SMILES notation.

For `N[C@@H]1C[C@H]1c1ccccc1` (relative stereo) [tranylcypromine], the “inhibition of propranolol metabolism” value in series [1] was “inhibited”. The “skin reaction at patch site” value in series [2] (setting [7]) was “No reaction”. The “inhibition of monoamine oxidase-dependent tetracaine metabolism” value in series [3] is reported as “could be inhibited”.

`OCCc1ccccc1` [2-phenyl-1-ethanol]: the “reduction of the incidence of sensitization” value in series [4] is “about 70%”. The “Percent Inhibition of Reaction” value worked out at 52% in series [5] (setting [8]), 52% in series [5] (setting [9]) and 77% in series [5] (setting [10]). The “skin reaction at patch site” value in series [2] (human, in vivo, pH 8.5) is listed as “No reaction”. Besides, the “inhibition of monoamine oxidase-dependent tetracaine metabolism” value in series [3] was “could be inhibited”.

With `OCCCc1ccccc1` [3-Phenyl-1-propanol, 3-phenyl-1-propanol], the “Percent Inhibition of Reaction” value in series [5] (setting [8]) is given as 37%; in series [5] (setting [9]), 100%; in series [5] (setting [10]), 100%.

Take `CN(C)CCC(c1ccc(Cl)cc1)c1ccccn1` (stereo not shown) [chlorpheniramine]: in series [6], the “dependence of in vitro skin metabolism on monoamine oxidase activity” value is listed as “largely dependent upon monoamine oxidase activity”.

Regarding `CC(C)NCC(O)COc1cccc2ccccc12` (stereo not shown) [propranolol], in series [2] (setting [7]), the “skin reaction at patch site” value is “strong reaction”. In addition, the “skin reaction after patch test” value in series [2] (0.5% in 2% HEC gel pH 8.5, 16 hours patch, one to two days later) is reported as “a reaction which was characteristic of a contact sensitization reaction”.

For the compound `CCCCNc1ccc(C(=O)OCCN(C)C)cc1` [tetracaine], the “portion of metabolism that is monoamine oxidase-dependent” value in series [3] is given as 25%.

The record behind these values is US5304379A, “Method for reducing sensitization or irritation in transdermal drug delivery and means therefor” (priority 1992, dated 1994).
